Results from patent US7049340B1, “Neuroprotective and retinoprotective ophthalmologic drugs” (priority 1999, dated 2006).
Several values for one entry are separate records, joined by “and”; a condition that tells them apart may be missing. Equal values may be shown once.

Legend:
Format in all cases: in vivo, human
[1] = tested on: patients with retinitis pigmentosa; assay: Clinical treatment of retinitis pigmentosa: visual acuity, automated perimetry, electroretinogram; conditions: for visual acuity after treatment: 1.25 mg orally, two months; for Mean drop MD: normal −2..2; for Corr. Loss variance CLV: normal 0..4; for Loss variance LV: normal 0..6; for Mean sensitivity MS: sectorial retinitis pigmentosa
Description: (§1) The invention will now be illustrated by the following description of clinical examples which, of course, are not limiting in nature. In these examples the active principle, in particular ramipril, was administered continuously in an oral form, in an amount of 1.25 mg per day.
FIGS. 5 and 6 reproduce the fields of vision of the left eye; FIGS. 7 and 8 reproduce the field of vision of the right eye as perceived by one of the treated patients who suffered from sectorial retinitis pigmentosa, respectively before treatment (FIGS. 5 and 7) and after treatment, two months later (FIGS. 6 and 8).
(§2) The grey scale provides an “image” of visual function, point by point, of different regions of the retina; the palest zones correspond to regions in which the visual functions are the least altered; the darkest zones correspond to those that have altered the most. […] A reduction in the darkest regions also indicates local visual recovery in regions that have become lighter.
(§3) The values that appear in the right hand portions of the figures correspond to the threshold values measured locally at set points in the retina. […] In contrast, the values that appear in the lower right hand portions of the figures correspond to local loss of vision in the zones concerned of the retina compared with the normal.
(§4) The Bebie curves also provide comparative images of the visual capacity of the subject under examination (lower curves) compared with the curves for normal or quasi-normal subjects (upper curves).
Three patients were treated with 1.25 mg of ramipril orally and their visual acuity improved in the space of two months: […]

[2] = tested on: patients with age-related macular degeneration; assay: Clinical treatment of age-related macular degeneration (ARMD): visual acuity
Description: as §1
By way of example, visual acuity changed respectively from 0.16 to 0.3; 0.2 to 0.5; from 0.05 to 0.2 (right eye) and 0.05 to 0.15 (left eye); from 0.2 to 0.4 (right eye) and from 0.5 to 0.8 (left eye); from 0.6 to 1; from 0.4 to 0.6 (right eye) and from 0.2 to 0.5 (left eye).

[3] = tested on: patients with retinal venous occlusion; assay: Clinical treatment of retinal venous occlusions; conditions: for visual acuity after treatment: oedematous and ischemic type venous branch occlusion, two months
Description: as §1

[4] = tested on: patient with Stargardt's disease, fundus flavimaculatus; assay: Clinical treatment of Stargardt's flavimaculatus disease: visual acuity; conditions: for visual acuity after treatment: one patient
Description: as §1
Ramipril was used in the following three disorders: retinitis pigmentosa; Stargardt's disease, fundus flavimaculatus; adult pseudo-vitelliform dystrophy.
One patient was treated; acuity improved from 1/20 to 1/10 in the right eye and from 1/50 to 3/10 in the left eye.

[5] = tested on: patients with central serous chorioretinopathy; assay: Clinical treatment of retinal epitheliopathy and central serous chorioretinopathy (CSCR); conditions: in a few days to a few weeks
Description: as §1

[6] = tested on: severely myopic patients with degenerative chorioretinopathy; assay: Clinical treatment of degenerative chorio-retinopathy in severe myopia: corrected visual acuity
Description: as §1
By way of example, visual acuity changed respectively: from simple light perception (LP) to 1/20 for the monophtalmic eye; from 2/10 (RE) 1/10 (LE) to 5/10 (RE) and 5/10 (LE); from 1.5/10 to 3/10; from 1/20 (both eyes) to 2/10 (RE) and 1/10 (LE); from 1/10 (RE) and 1/10 (LE) to 6/10 (RE) and 3/10 (LE). Clearly, the term RE used here means “right eye” and the term LE used here means “left eye”.

[7] = tested on: healthy subject; assay: General arterial pressure at doses that improve field of vision; conditions: healthy subject
Description: Effective doses for producing effects in the ophtalmologic field are desirably lower than doses that would induce general arterial hypotension in a subject with normal pressure. Clearly, the doses that can be used can be higher in subjects with hypertension, although this is not necessary, since the desired effect is that obtained in the ophtalmologic field.

[8] = tested on: patients with glaucomatous neuropathy; assay: Clinical treatment of glaucomatous neuropathy: visual acuity, automated perimetry, ocular tension; conditions: for Mean drop MD: normal −2..2; for Corr. Loss variance CLV: normal 0..4; for Loss variance LV: normal 0..6; for visual acuity after treatment: most spectacular case
Description: as §1
FIGS. 1 and 2 reproduce the fields of vision of the left eye; FIGS. 3 and 4 reproduce the field of vision of the right eye as perceived by one of the treated patients who suffered from glaucomatous neuropathy, respectively before treatment (FIGS. 1 and 3) and after treatment, 10 days later (FIGS. 2 and 4).
as §2, §3, §4

## CCOC(=O)[C@H](CCc1ccccc1)N[C@@H](C)C(=O)N1[C@H](C(=O)O)C[C@@H]2CCC[C@@H]21 [ramipril]
[1]; first patient, right eye, before doubtful light perception
  visual acuity after treatment: 1/50
[1]; retinitis pigmentosa, all cases
  visual function: improvement in visual function
[1]; second patient, monophthalmic, before 2/10
  visual acuity after treatment: 5/10
[1]; third patient (sectorial), left eye, before 1.6
  visual acuity after treatment: 4/10
[1]; third patient (sectorial), right eye, before 1.6
  visual acuity after treatment: 6/10
[1]; third patient, left eye after two months, Mean, before 10.3
  Mean drop MD: 6.5 dB
[1]; third patient, left eye after two months, Mean, before 52.5
  Corr. Loss variance CLV: 48.0 dB^2
[1]; third patient, left eye after two months, Phase 1, before 9.8
  Mean drop MD: 6.2 dB
[1]; third patient, left eye after two months, Phase 1, before 60.6
  Loss variance LV: 51.8 dB
[1]; third patient, left eye after two months, Phase 2, before 9.6
  Mean drop MD: 7.0 dB
[1]; third patient, left eye after two months, Phase 2, before 52.8
  Loss variance LV: 63.9 dB
[1]; third patient, right eye after two months, Mean, before 10.6
  Mean drop MD: 8.8 dB
[1]; third patient, right eye after two months, Mean, before 66.0
  Corr. Loss variance CLV: 65.6 dB^2
[1]; third patient, right eye after two months, Phase 1, before 10.2
  Mean drop MD: 8.7 dB
[1]; third patient, right eye after two months, Phase 1, before 70.4
  Loss variance LV: 67.5 dB
[1]; third patient, right eye after two months, Phase 2, before 11.5
  Mean drop MD: 9.2 dB
[1]; third patient, right eye after two months, Phase 2, before 86.9
  Loss variance LV: 79.8 dB
[1]; third patient, left eye after two months, Mean, before 16.8
  Mean sensitivity MS: 19.9 and 20.9
[1]; third patient, left eye after two months, Phase 1, before 17.3
  Mean sensitivity MS: 21.2
[1]; third patient, left eye after two months, Phase 2, before 17.9
  Mean sensitivity MS: 20.8
[1]; third patient, right eye after two months, Mean, before 16.5
  Mean sensitivity MS: 18 and 18.3
[1]; third patient, right eye after two months, Phase 1, before 16.8
  Mean sensitivity MS: 18.4
[1]; third patient, right eye after two months, Phase 2, before 16.0
  Mean sensitivity MS: 18.2
[1]; third patient, especially in the red and in the left eye
  electroretinogram: substantially improved
[2]; case 1, before 0.16
  visual acuity after treatment: 0.3
[2]; case 2, before 0.2
  visual acuity after treatment: 0.5
[2]; case 3, left eye, before 0.05
  visual acuity after treatment: 0.15
[2]; case 3, right eye, before 0.05
  visual acuity after treatment: 0.2
[2]; case 4, left eye, before 0.5
  visual acuity after treatment: 0.8
[2]; case 4, right eye, before 0.2
  visual acuity after treatment: 0.4
[2]; case 5, before 0.6
  visual acuity after treatment: 1
[2]; case 6, left eye, before 0.2
  visual acuity after treatment: 0.5
[2]; case 6, right eye, before 0.4
  visual acuity after treatment: 0.6
[2]; majority of patients, with or without sub-retinal neovessels
  visual acuity: improved visual acuity
[3]; first patient, before 2/10
  visual acuity after treatment: 8/10
[3]; majority of patients treated
  functional and angiographic outcome: improved both on the functional and on the angiographic level
[3]; second patient, before 6/10
  visual acuity after treatment: 10/10
[4]; Stargardt's disease, fundus flavimaculatus, all cases
  visual function: improvement in visual function
[4]; left eye, before 1/50
  visual acuity after treatment: 3/10
[4]; right eye, before 1/20
  visual acuity after treatment: 1/10
[5]
  blister (retinal serous detachment): reduction in the blister
  visual acuity and central field of vision: improvement in visual acuity and in the central field of vision
[6]; case 1, monophtalmic eye, before simple light perception (LP)
  visual acuity after treatment: 1/20
[6]; case 2, LE, before 1/10
  visual acuity after treatment: 5/10
[6]; case 2, RE, before 2/10
  visual acuity after treatment: 5/10
[6]; case 3, before 1.5/10
  visual acuity after treatment: 3/10
[6]; case 4, LE, before 1/20
  visual acuity after treatment: 1/10
[6]; case 4, RE, before 1/20
  visual acuity after treatment: 2/10
[6]; case 5, LE, before 1/10
  visual acuity after treatment: 3/10
[6]; case 5, RE, before 1/10
  visual acuity after treatment: 6/10
[6]; even in a low dose, always, despite extremely severe myopic choroidosis
  corrected visual acuity: improvement in corrected visual acuity
[7]
  effect on arterial pressure of doses that improve field of vision: do not cause arterial hypertension
[8]; automated perimetry
  scotomas: absolute scotomas became relative
[8]; automated perimetry, on average
  reduction of loss in mean sensitivity: 30%
[8]; irregular amount
  ocular tension: Significant reduction
[8]; left eye after treatment (10 days), Mean, before 9.9
  Mean drop MD: 6.2 dB
[8]; left eye after treatment (10 days), Mean, before 22.4
  Corr. Loss variance CLV: 13.1 dB^2
[8]; left eye after treatment (10 days), Mean, before treatment 16.5
  Mean sensitivity MS: 20.2
[8]; left eye after treatment (10 days), Phase 1, before 9.5
  Mean drop MD: 5.7 dB
[8]; left eye after treatment (10 days), Phase 1, before 26.8
  Loss variance LV: 16.8 dB
[8]; left eye after treatment (10 days), Phase 1, before treatment 16.9
  Mean sensitivity MS: 20.0
[8]; left eye after treatment (10 days), Phase 2, before 9.4
  Mean drop MD: 6.8 dB
[8]; left eye after treatment (10 days), Phase 2, before 29.3
  Loss variance LV: 26.5 dB
[8]; left eye after treatment (10 days), Phase 2, before treatment 17.3
  Mean sensitivity MS: 20.0
[8]; LE, before 3/10
  visual acuity after treatment: 10/10
[8]; RE, before 6/10
  visual acuity after treatment: 8/10
[8]; right eye after treatment (10 days), Mean, before 9.5
  Mean drop MD: 4.8 dB
[8]; right eye after treatment (10 days), Mean, before 21.8
  Corr. Loss variance CLV: 13.1 dB^2
[8]; right eye after treatment (10 days), Mean, before treatment 16.9
  Mean sensitivity MS: 21.6
[8]; right eye after treatment (10 days), Phase 1, before 9.0
  Mean drop MD: 4.1 dB
[8]; right eye after treatment (10 days), Phase 1, before 28.6
  Loss variance LV: 17.2 dB
[8]; right eye after treatment (10 days), Phase 1, before treatment 17.4
  Mean sensitivity MS: 22.2
[8]; right eye after treatment (10 days), Phase 2, before 9.3
  Mean drop MD: 4.7 dB
[8]; right eye after treatment (10 days), Phase 2, before 21.0
  Loss variance LV: 10.4 dB
[8]; right eye after treatment (10 days), Phase 2, before treatment 17.4
  Mean sensitivity MS: 21.9
